Measurements taken from US20140066465A1, “CANCER TREATMENT USING TYROSINE KINASE AND NF-kB INHIBITORS” (The Cleveland Clinic Foundation, priority 2012, published 2014).

Legend:
[1] = tested on: erlotinib-resistant NSCLC cell lines (A549, H1975, and H1993); assay: cells
Experimental: Erlotinib-resistance NSCLC cell lines A549, H1975, and H1993 were used.
(§1) The cells were plated in 96-well plates at 2500-3000 cells per well, and allowed to attach overnight, with 6 replicates being used for each dose. First, the inventors detected the IC50 with single drug treatment for each cell line.

sensitive cell lines = assay: MTT cell survival assay, single drug; assay type: cell-based; conditions: single drug treatment
Experimental: as §1

[2] = in vivo; cited from earlier work
CYP3A4 = CYP3A4 (Homo sapiens, UniProt P08684); conditions: cited from earlier work
Sequence of CYP3A4 (P08684 whole entry): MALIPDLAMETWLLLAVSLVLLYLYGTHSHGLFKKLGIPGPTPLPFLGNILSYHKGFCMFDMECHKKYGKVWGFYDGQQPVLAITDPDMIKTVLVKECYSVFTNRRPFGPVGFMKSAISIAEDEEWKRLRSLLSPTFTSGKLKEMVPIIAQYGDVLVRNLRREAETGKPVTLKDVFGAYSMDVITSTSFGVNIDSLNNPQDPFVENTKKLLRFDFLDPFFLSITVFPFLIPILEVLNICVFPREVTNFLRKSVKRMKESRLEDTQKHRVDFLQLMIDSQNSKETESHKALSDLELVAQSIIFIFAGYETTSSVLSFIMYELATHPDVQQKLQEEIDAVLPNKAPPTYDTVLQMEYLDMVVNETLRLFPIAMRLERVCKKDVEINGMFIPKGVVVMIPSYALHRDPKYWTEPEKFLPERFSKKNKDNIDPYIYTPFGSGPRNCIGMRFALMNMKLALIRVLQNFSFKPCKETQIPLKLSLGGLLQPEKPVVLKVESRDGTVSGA

H1975 cells = assay: PARP cleavage Western blot; assay type: cell-based; conditions: 5 μM quinacrine, time course
NF-κB [3] = tested on: NF-κB
Experimental: For the NF-κB luciferase assay, A549 or H1975 cells were infected with the κB-luciferse construct PLANFκBluc and stably selected with puromycin or hygromycin. The reporter cells were then seeded in 96-well plates at 1-2×10^3 per well, allowed to attach overnight, and then treated with drugs and/or interleukin-1 for four hours. Cells were then harvested in reporter lysis buffer (Promega) and assayed for luciferase activity using the luciferase assay system (Promega).

NF-κB [4] = conditions: A549 or H1975 reporter cells; pretreated, then interleukin-1 for 6 h
Experimental: The reporter cells were then seeded in 96-well plates at 1-2×10^3 per well, allowed to attach overnight, and then treated with drugs and/or IL-1. Cells were then harvested in reporter lysis buffer (Promega) and assayed for luciferase activity using the luciferase assay system (Promega).

[5] = tested on: xenograft tumors originating from human renal cell carcinoma; conditions: mice; cited from earlier work

C#Cc1cccc(Nc2ncnc3cc(OCCOC)c(OCCOC)cc23)c1 [erlotinib]
IC50 [1]: 10000 to 20000 nM | IC50 (sensitive cell lines): ~20 nM | half life [2]: about 36 hours | route of clearance (CYP3A4): cleared predominantly by CYP3A4 methabolism

CCN(CC)CCCC(C)Nc1c2ccc(Cl)cc2nc2ccc(OC)cc12 (stereo not shown) [quinacrine]
IC50 [1]: 1000 to 2000 nM | Apoptosis by PARP cleavage (H1975 cells): time-dependent increase of PARP cleavage | NF-κB-dependent luciferase reporter activity (NF-κB [3]; A549 or H1975 reporter cells, 4 h treatment, relative to untreated control): suppresses NF-κB-dependent luciferase reporter activity | NF-κB activity (NF-κB [3]; general statement of the inventors): profoundly suppresses NF-κB activity | IL-1-induced NF-κB-dependent luciferase reporter activity (NF-κB [4]): suppresses interleukin-1 (IL-1)-induced NF-κB-dependent luciferase reporting activity | anti-tumor effect [5]: anti-tumor effect
